# Source: publication PMC9356275, “A quantitative high-throughput screen identifies compounds that lower expression of the SCA2-and ALS-associated gene ATXN2” (The Journal of Biological Chemistry, 2022)
# Several values for one entry are separate records, joined by “and”; a condition that tells them apart may be missing. Identical values can stand only once. Counter-ions that a name gives are not always drawn. Like-named read-outs stand apart in the source and are kept apart here.
# What was measured:
# ATXN2-luc [1] = assay: NCATS qHTS (LOPAC pilot, primary and confirmation): ATXN2-luc in S2 cells, 1536-well, Steady-Glo; format: cell-based, human; details: for Curve Class: LOPAC library (1,280 compounds) screening optimization, signed sub-classes (-1.1, -2.2, -3 ...)
# Procedure: We next performed a pilot screen assay to optimize the 1536-well qHTS using S2 cells. […] Cytotoxicity was determined using a multiplexed viability assay (CellTiter-Fluor, a fluorescence-based viability assay using Gly-Phe-7-amino-4-trifluoromethylcoumarin substrate).
# CellTiter-Fluor was used to determine compound effect on cell viability, and Steady-Glo was used to measure luciferase in a multiplexed assay.
# The primary assay was conducted at the NCATS NIH Chemical Genomics Center laboratory. About 4 μl of S2 cell suspension in phenol red–free DMEM was dispensed into wells of 1536-well assay plates. […] Next, SteadyGlo luciferase substrate detection reagent (3 μl) was added to each well and incubated for an additional 5 min at room temperature. Luminescence was then measured on the ViewLux imager equipped with clear filters using a 2 s exposure. All screening operations were performed on a fully integrated robotic system (Kalypsys) containing one RX-130 and two RX-90 anthropomorphic robotic arms (Stäubli). Vehicle-only plates, with DMSO being pin-transferred to columns 5 to 48, were inserted uniformly at the beginning and the end of each library in order to monitor and record any shifts in assay performance.
# ATXN2-luc [2] = assay: MSSR pilot screen: ATXN2-luc luciferase assay (Bright-Glo) in H2 cells, single 10 μM dose; format: cell-based, human; details: H2 cells, single dose (title: 10 μM compound), overnight
# [3] = Homo sapiens, LOPAC library screening optimization, logarithm of AC50 (negative values), read-out: Log AC50 (converted)
# [4] = Homo sapiens, LOPAC library screening optimization, read-out: AC50
# [5] = LOPAC library screening optimization, curve-fit parameter
# [6] = LOPAC library screening optimization, logarithm of AC50 (negative values)
# [7] = LOPAC library screening optimization, read-out: AC50
structure (smiles),measurement,setting,value
C=C[C@H]1C[N@@]2CC[C@H]1C[C@H]2[C@H](O)c1ccnc2ccc(OC)cc12 [Quinine sulfate],AC50,ATXN2-luc [1]; [3],35.5 µM
same,AC50,ATXN2-luc [1]; [4],35.5 µM
same,Efficacy,ATXN2-luc [1]; [5],-70.489
same,Inf Activity,ATXN2-luc [1]; [5],-66.665
CC(=O)O[C@H]1C[C@H](O[C@H]2[C@@H](O)C[C@H](O[C@H]3[C@@H](O)C[C@H](OC4CC[C@@]5(C)C(CC[C@@H]6[C@@H]5CC[C@]5(C)[C@@H](C7=CC(=O)OC7)[C@@H](O)C[C@]65O)C4)O[C@@H]3C)O[C@@H]2C)O[C@H](C)[C@H]1O[C@@H]1O[C@H](CO)[C@@H](O)[C@H](O)[C@H]1O (stereo partly drawn) [Lanatoside B],AC50,ATXN2-luc [1]; [3],1.26 µM
same,AC50,ATXN2-luc [1]; [4],1.26 µM
same,Efficacy,ATXN2-luc [1]; [5],-78.0523
same,Inf Activity,ATXN2-luc [1]; [5],-90.3741
C[C@@H]1O[C@@H](O[C@H]2C[C@@H](O)[C@]3(CO)[C@H]4[C@H](O)C[C@]5(C)[C@@H]([C@H]6COC(=O)C6)CC[C@]5(O)[C@@H]4CC[C@]3(O)C2)[C@H](O)[C@H](O)[C@H]1O [dihydroouabain],Hill Coef,ATXN2-luc [1]; [5],3.0654 and 2.7202 and 1.8851 and 1.6604
CCc1cccc(N(C)C(N)=Nc2cccc3ccccc23)c1 [CNS-1102],AC50,ATXN2-luc [1]; [3],12.6 µM
same,AC50,ATXN2-luc [1]; [4],12.6 µM
same,Curve Class,ATXN2-luc [1],-2.2
same,Log AC50,ATXN2-luc [1]; [6],-4.7
same,AC50,ATXN2-luc [1]; [7],20 µM
Nc1nc(=S)c2ncn([C@@H]3O[C@H](CO)[C@@H](O)[C@H]3O)c2[nH]1 [Thioguanosine],AC50,ATXN2-luc [1]; [3],3.55 µM
same,AC50,ATXN2-luc [1]; [4],3.55 µM
same,Efficacy,ATXN2-luc [1]; [5],-64.1845
same,Inf Activity,ATXN2-luc [1]; [5],-62.8466
"Br.CC1C2Cc3ccc(O)cc3C1(C)CCN2CCc1ccccc1 (single isomer, unassigned; (+)) [(+)-Phenazocine hydrobromide]",AC50,ATXN2-luc [1]; [3],17.8 µM
same,AC50,ATXN2-luc [1]; [4],17.8 µM
same,Efficacy,ATXN2-luc [1]; [5],-59.8542
same,Inf Activity,ATXN2-luc [1]; [5],-62.9667
N=c1ccn2c(n1)O[C@H]1[C@H](O)[C@@H](CO)O[C@H]12 [ANCITABINE HYDROCHLORIDE],"SD from mean (ATXN2-luc, Z-score)",ATXN2-luc [2],-3.031 SD
CNCCCN1c2ccccc2CCc2ccccc21 [Desipramine hydrochloride],AC50,ATXN2-luc [1]; [3],12.6 µM
same,AC50,ATXN2-luc [1]; [4],12.6 µM
same,Curve Class,ATXN2-luc [1],-2.2
same,Log AC50,ATXN2-luc [1]; [6],-4.85
same,AC50,ATXN2-luc [1]; [7],14.1 µM
O=C1C=CC(=O)c2ccccc21 [4-NAPHTHOQUINONE],"SD from mean (ATXN2-luc, Z-score)",ATXN2-luc [2],-3.613 SD
OC(CCN1CCCCC1)(c1ccccc1)C1CC2C=CC1C2 (stereo not drawn) [Biperiden hydrochloride],AC50,ATXN2-luc [1]; [3],17.8 µM
same,AC50,ATXN2-luc [1]; [4],17.8 µM
same,Curve Class,ATXN2-luc [1],-2.2
same,Log AC50,ATXN2-luc [1]; [6],-4.6
same,AC50,ATXN2-luc [1]; [7],25.1 µM
COc1cccc2c1C(=O)c1c(O)c3c(c(O)c1C2=O)C[C@@](O)(C(C)=O)C[C@@H]3O[C@H]1C[C@H](N)[C@H](O)[C@H](C)O1 [Daunorubicin hydrochloride],"SD from mean (ATXN2-luc, Z-score)",ATXN2-luc [2],-4.155 SD
C[n+]1c2cc(N)ccc2cc2ccc(N)cc21.[Cl-] [ACRIFLAVINIUM HYDROCHLORIDE],"SD from mean (ATXN2-luc, Z-score)",ATXN2-luc [2],-4.148 SD
CC(=O)[C@]1(O)Cc2c(O)c3c(c(O)c2[C@@H](O[C@H]2C[C@H](N)[C@H](O)[C@H](C)O2)C1)C(=O)c1ccccc1C3=O [IDARUBICIN HCl],"SD from mean (ATXN2-luc, Z-score)",ATXN2-luc [2],-2.944 SD
COc1ccc(C[C@H]2NC[C@H](O)[C@H]2OC(C)=O)cc1 [Anisomycin],"SD from mean (ATXN2-luc, Z-score)",ATXN2-luc [2],-4.015 SD
N=C1C=CC(=C(c2ccc(N)cc2)c2ccc(N)cc2)C=C1 [PARAROSANILINE PAMOATE],"SD from mean (ATXN2-luc, Z-score)",ATXN2-luc [2],-2.740 SD
CC1CNCCN1[S+](=O)([O-])c1cccc2cnccc12 (stereo not drawn),AC50,ATXN2-luc [1]; [3],22.4 µM
same,AC50,ATXN2-luc [1]; [4],22.4 µM
O[C@H]1[C@H]2c3cc4c(cc3CN3CCC(=C[C@@H]1O)[C@H]23)OCO4 [Lycorine hydrochloride],"SD from mean (ATXN2-luc, Z-score)",ATXN2-luc [2],-2.968 SD
Br.COc1cc(CC(C)N)c(OC)cc1Br (stereo not drawn),AC50,ATXN2-luc [1]; [3],15.8 µM
same,AC50,ATXN2-luc [1]; [4],15.8 µM
same,Curve Class,ATXN2-luc [1],-2.4
same,Efficacy,ATXN2-luc [1]; [5],-57.1187
same,Inf Activity,ATXN2-luc [1]; [5],-63.2991
COC(=O)[C@]1(C)CC[C@]2(C)CC[C@]3(C)C4=CC=C5C(=CC(=O)C(O)=C5C)[C@]4(C)CC[C@@]3(C)[C@@H]2C1 [PRISTIMERIN],"SD from mean (ATXN2-luc, Z-score)",ATXN2-luc [2],-3.883 SD
CCCCCCc1ccc(O)cc1O.Nc1c2ccccc2nc2ccccc12 [ACRISORCIN],"SD from mean (ATXN2-luc, Z-score)",ATXN2-luc [2],-3.600 SD
COc1cc(C[C@@H](C)N)c(OC)cc1Br.Cl,AC50,ATXN2-luc [1]; [3],39.8 µM
same,AC50,ATXN2-luc [1]; [4],39.8 µM
same,Efficacy,ATXN2-luc [1]; [5],-71.0454
same,Inf Activity,ATXN2-luc [1]; [5],-73.0357
C[C@H]1CC[C@]2(NC1)O[C@H]1C[C@H]3[C@@H]4CC[C@H]5C[C@@H](O[C@@H]6O[C@H](CO)[C@H](O[C@@H]7O[C@H](CO)[C@@H](O)[C@H](O[C@@H]8OC[C@@H](O)[C@H](O)[C@H]8O)[C@H]7O[C@@H]7O[C@H](CO)[C@@H](O)[C@H](O)[C@H]7O)[C@H](O)[C@H]6O)CC[C@]5(C)[C@H]4CC[C@]3(C)[C@H]1[C@@H]2C [TOMATINE],"SD from mean (ATXN2-luc, Z-score)",ATXN2-luc [2],-4.999 SD
CC(C)NC[C@@H](O)c1ccc(O)c(O)c1 [S(+)-Isoproterenol (+)-bitartrate],AC50,ATXN2-luc [1]; [3],31.6 µM
same,AC50,ATXN2-luc [1]; [4],31.6 µM
same,Efficacy,ATXN2-luc [1]; [5],-77.2877
same,Inf Activity,ATXN2-luc [1]; [5],-79.7998
C[C@H](N)CN1CCc2ccc(Br)cc21 [VER-3323 hemifumarate salt],AC50,ATXN2-luc [1]; [3],11.2 µM
same,AC50,ATXN2-luc [1]; [4],11.2 µM
same,Curve Class,ATXN2-luc [1],-2.2
same,Log AC50,ATXN2-luc [1]; [6],-4.8
same,AC50,ATXN2-luc [1]; [7],15.8 µM
